From patent publication US7034208B1, “Ahas inhibiting herbicide resistant wheat and method for selection thereof” (BASF Aktiengellschaft, priority 1991, dated 2006)

Key:
[1] = test system: mutant wheat selections FS1-FS4 and Fidel; format: in vivo; settings: postemergence
Source text: This greenhouse test examines the level and spectrum of herbicide resistance of the mutant selections at the whole plant level. […] These lines are bulked according to their parental lines: FS1, FS2, FS3 and FS4. Fidel (wild-type) is used is a control and for performance comparison purposes. Five seeds from each of these lines (including Fidel) are planted per pot in six inch Azalea pots and are later thinned to three plants per pot. Three replicates are used per treatment (chemical and rate) for each line, and six replicates per wheat line are used as untreated controls. Plants are sprayed postemergence, 10 days after planting, with the following herbicides and rates: […]

[2] = test system: wheat selection FS4 and Fidel; assay: Field Trial II; format: in vivo; settings: resistant selection FS4; postemergent; six weeks after treatment
[3] = test system: M4 progeny of wheat selections FS1-FS4 and Fidel; assay: Segregation Study, postemergence spray of M4 progeny; format: in vivo
Description: A study is performed to assay M4 progeny of the initial mutant wheat selections for imidazolinone resistance and homogeneity. M4 seeds, from M3 plants (derived from initial selections, FS1-FS4) which survive the two-step screen described previously, are used in this study. In addition, M4 seeds derived from M3 plants of each selection which are not screened (designated “stock” plants) are evaluated as well as Fidel controls. Seeds, derived from both stock and screened M3 plants representing each infloresence of each original wheat selection (FS1-FS4), are planted in flats at a rate of twenty-five seeds per row and eight rows per flat. One week after planting, when the seedlings are at Z12 (two leaf) stage, the plants are sprayed with 62.5 g/ha PURSUIT™. The herbicide is applied with a laboratory belt sprayer at a rate of 950 L/ha with a belt speed of 12.5 sec/rev. using sprayer nozzle #40015E at a height 18 inches above the plants. Tween 20™ is used as a surfactant at 0.25% v/v. Plants are evaluated three weeks after spraying.

[4] = test system: wheat selections FS1-FS4 and Fidel; assay: Field Trial I; format: in vivo; settings: 100 g/ha postemergent, yields 10 weeks after treatment
Description: A field study is conducted to evaluate the tolerance of the imidazolinone-resistant wheat selections, FS1-FS4, to postemergent applications of imidazolinone herbicides. The variety Fidel, from which these selections are derived, is included as a susceptible check. Because Fidel is a French winter wheat variety and unadapted to New Jersey, this test is intended to evaluate the relative effects of the herbicide treatments on grain yields rather than to measure actual yield potentials for the genotypes. Thus, yields are presented as grams/plot rather than bushels/acre or metric tons/ha.
M4 bulked seed from parental lines, FS1, FS2, FS3 and FS4 and Fidel wild-type, is used in this field trial. The trial is planted in an incomplete split plot design with the main plot as herbicide-rate combination and the split plot as genotypes. […] The plots are three meters long and 1.5 meters wide (7 rows with 7 inch spacing between rows) with approximately 25 seed planted per row. There is a one meter space between wheat lines and ten meters between replicates.
Treatments are applied at a rate of 400 L/ha with a tractor mounted sprayer. Tween 20™ is used as a surfactant at 0.25% v/v. Wheat is treated at the Z22 stage or approximately 6 inches tall. Plant height and damage ratings are taken at 3 and 6 weeks after treatment. Yields are taken 10 weeks after treatment.

[5] = test system: wheat embryos (M3 of FS1-FS4, Fidel); assay: M3 Plant Screen: In vitro (excised embryos cultured on herbicide medium); format: cell-based
Description: M3 plants from the four initial plant selections (labelled FS1, FS2, FS3 and FS4) are screened for PURSUIT™ resistance in vitro. M3 seeds from each mature infloresence of these initial M2 mutants are disinfested in 70% EtOH for 30 seconds followed by disinfestation in 50% solution containing 2.625% sodium hypochlorite (as described above) for 20 minutes under vaccuum with gentle agitation provided by a stir plate. The seeds are soaked in sterile distilled water in 100×5 mm sterile plastic petri dishes for 20-24 hours after which the embryos are excised and cultured onto medium containing either 10^−4, 10^−5, or 10^−6 M PURSUIT™. […] Embryo ratings are taken at either two and one-half or three weeks after culture initiation.

wheat seeds = assay: Seed soak screen (Example 1, Step 1, Experiments 1-4); format: in vivo
Description: The seeds are rinsed in sterile distilled water and then soaked in a herbicide concentration for a set period of time, as described below. Sets of twenty-five seeds are placed into 25 ml of the herbicide solution described below in a sterile 100×15 mm plastic petri dish and soaked for the designated time. The seeds are rinsed with water, dried with paper towels and planted (25 seeds/flat) approximately ½″ deep in 6×8 inch peat flats containing a moist, sterile, artificial soil, Metro Mix 350™ (Grace Company, Cambridge, Mass.). The treatments are evaluated at four weeks after treatment. The herbicides, rates and time periods evaluated are described below:
Each treatment is replicated four times.
Each treatment is replicated two times.
The protocol is as described above except that 35 seeds are soaked per petri dish; 25 seeds are still planted per flat. This experiment is repeated twice.

[6] = Control 2 = Fidel on medium with herbicide, concentration 10^−5
[7] = Control 2 = Fidel on medium with herbicide, concentration 10^−6
[8] = Control M3 = M3 seed on medium with herbicide (footnote), section 10^−5
[9] = Control M3 = M3 seed on medium with herbicide (footnote), section 10^−6
[10] = FS1 M3 embryos, concentration 10^−5
[11] = FS1 M3 embryos, concentration 10^−6
[12] = FS2 M3 embryos, concentration 10^−5
[13] = FS2 M3 embryos, concentration 10^−6
[14] = FS3 M3 embryos, concentration 10^−5
[15] = FS3 M3 embryos, concentration 10^−6
[16] = FS4 M3 embryos, concentration 10^−5
[17] = FS4 M3 embryos, concentration 10^−6

Compound: CCc1cnc(C2=NC(C)(C(C)C)C(=O)N2)c(C(=O)O)c1 (centres unmarked) [PURSUIT, 5-ethyl-2-(4-isopropyl-4-methyl-5-oxo-2-imidazolin-2-yl)-nicotinic acid]
- rate to which the mutant wheat is resistant ([1]; mutant wheat FS1-FS4, plant growth four weeks after treatment): more than 320 g/ha
- increased tolerance of mutant wheat ([1]; mutant wheat FS1-FS4 versus Fidel, four weeks after treatment): ~8 fold
- effect on final plant height [2]: no effect
- susceptibility of Fidel ([3]; Fidel, 62.5 g/ha postemergence at Z12 stage, three weeks after spraying, all plants die): completely susceptible
- tolerance of resistant selections ([3]; imidazolinone-resistant winter wheat selections, M4, 62.5 g/ha postemergent, greenhouse): excellent tolerance
- yield reduction [4]: 35%
- Embryo Rating D (Damaged), number of embryos [5, 6]: 0
- Embryo Rating S (Susceptible), number of embryos [5, 6]: 30
- Embryo Rating T (Tolerant), number of embryos [5, 6]: 0
- Embryo Rating D (Damaged), number of embryos [5, 7]: 0
- Embryo Rating S (Susceptible), number of embryos [5, 7]: 15
- Embryo Rating T (Tolerant), number of embryos [5, 7]: 0
- Ave. Shoot Height [5, 8]: 14.7 cm
- Embryo Rating D (Damaged), number of embryos [5, 8]: 1
- Embryo Rating S (Susceptible), number of embryos [5, 8]: 1
- Embryo Rating T (Tolerant), number of embryos [5, 8]: 27
- Range Shoot Heights [5, 8]: 1-28 cm
- Ave. Shoot Height [5, 9]: 14.6 cm
- Embryo Rating D (Damaged), number of embryos [5, 9]: 0
- Embryo Rating S (Susceptible), number of embryos [5, 9]: 0
- Embryo Rating T (Tolerant), number of embryos [5, 9]: 15
- Range Shoot Heights [5, 9]: 2-28 cm
- Embryo Rating D (Damaged), number of embryos [5, 10]: 16
- Embryo Rating S (Susceptible), number of embryos [5, 10]: 42
- Embryo Rating T (Tolerant), number of embryos [5, 10]: 21
- Range Shoot Heights [5, 10]: 0-1.5 cm
- Ave. Shoot Height [5, 11]: 9.1 cm
- Embryo Rating D (Damaged), number of embryos [5, 11]: 0
- Embryo Rating S (Susceptible), number of embryos [5, 11]: 0
- Embryo Rating T (Tolerant), number of embryos [5, 11]: 70
- Range Shoot Heights [5, 11]: 1-22 cm
- Embryo Rating D (Damaged), number of embryos [5, 12]: 14
- Embryo Rating S (Susceptible), number of embryos [5, 12]: 45
- Embryo Rating T (Tolerant), number of embryos [5, 12]: 21
- Range Shoot Heights [5, 12]: 0-3.5 cm
- Ave. Shoot Height [5, 13]: 11.4 cm
- Embryo Rating D (Damaged), number of embryos [5, 13]: 1
- Embryo Rating S (Susceptible), number of embryos [5, 13]: 0
- Embryo Rating T (Tolerant), number of embryos [5, 13]: 64
- Range Shoot Heights [5, 13]: 1-23 cm
- Embryo Rating D (Damaged), number of embryos [5, 14]: 9
- Embryo Rating S (Susceptible), number of embryos [5, 14]: 58
- Embryo Rating T (Tolerant), number of embryos [5, 14]: 12
- Range Shoot Heights [5, 14]: 0-4.5 cm
- Ave. Shoot Height [5, 15]: 5.2 cm
- Embryo Rating D (Damaged), number of embryos [5, 15]: 12
- Embryo Rating S (Susceptible), number of embryos [5, 15]: 22
- Embryo Rating T (Tolerant), number of embryos [5, 15]: 34
- Range Shoot Heights [5, 15]: 1-23 cm
- Embryo Rating D (Damaged), number of embryos [5, 16]: 15
- Embryo Rating S (Susceptible), number of embryos [5, 16]: 31
- Embryo Rating T (Tolerant), number of embryos [5, 16]: 16
- Range Shoot Heights [5, 16]: 0-3.0 cm
- Ave. Shoot Height [5, 17]: 13.4 cm
- Embryo Rating D (Damaged), number of embryos [5, 17]: 8
- Embryo Rating S (Susceptible), number of embryos [5, 17]: 13
- Embryo Rating T (Tolerant), number of embryos [5, 17]: 59
- Range Shoot Heights [5, 17]: 1-33 cm
- embryos that germinate ([5]; Fidel controls or M3 embryos, medium containing 10^−4 M): None of the embryos
- tolerance of embryos ([5]; M3 embryos, 10^−5 M in the medium, still considerable growth inhibition): somewhat tolerant
- concentration that prevents the survival of potential false positives (wheat seeds; seed soak for 72 hours): 1000 µM
- concentration that prevents the survival of potential false positives (wheat seeds; seed soak for 96 hours): 750 µM
